This note sets out measurements from US10787447B2, “Pharmaceutical compounds” (Heptares Therapeutics Limited, priority 2018, dated 2020).

Common to all, as to type: cell-based
In assay [1] the target is T1, human muscarinic M1 receptor (Homo sapiens, UniProt P11229).
T1 sequence (P11229 1-460): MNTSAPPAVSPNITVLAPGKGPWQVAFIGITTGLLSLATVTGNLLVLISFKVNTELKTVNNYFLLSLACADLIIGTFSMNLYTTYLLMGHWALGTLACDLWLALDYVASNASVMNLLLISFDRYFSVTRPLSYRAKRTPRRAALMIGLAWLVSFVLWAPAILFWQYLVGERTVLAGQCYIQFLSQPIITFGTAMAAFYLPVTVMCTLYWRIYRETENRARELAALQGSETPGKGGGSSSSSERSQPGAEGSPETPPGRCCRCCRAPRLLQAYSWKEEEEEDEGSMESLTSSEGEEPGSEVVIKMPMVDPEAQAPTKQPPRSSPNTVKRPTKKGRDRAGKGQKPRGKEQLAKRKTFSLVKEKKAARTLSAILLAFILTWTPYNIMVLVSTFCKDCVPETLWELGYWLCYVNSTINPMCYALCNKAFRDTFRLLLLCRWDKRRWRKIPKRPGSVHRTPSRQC
The assay can be described thus: Alphascreen Surefire phospho-ERK1/2 functional assay, M1. The conditions noted are these: for % Emax cf. ACh, M1: CHO cells stably expressing human M1, Emax relative to ACh; for EC50: pEC50 M1, CHO cells stably expressing human M1, phospho-ERK1/2. The method, then:
(§1) Functional assays were performed using the Alphascreen Surefire phospho-ERK1/2 assay (Crouch & Osmond, Comb. Chem. High Throughput Screen, 2008). ERK1/2 phosphorylation is a downstream consequence of both Gq/11 and Gi/o protein coupled receptor activation, making it highly suitable for the assessment of M1, M3 (Gq/11 coupled) and M2, M4 receptors (Gi/o coupled), rather than using different assay formats for different receptor subtypes. CHO cells stably expressing the human muscarinic M1, M2, M3 or M4 receptor were plated (25K/well) onto 96-well tissue culture plates in MEM-alpha+10% dialysed FBS. Once adhered, cells were serum-starved overnight. Agonist stimulation was performed by the addition of 5 μL agonist to the cells for 5 min (37° C.). Media was removed and 50 μL of lysis buffer added. After 15 min, a 4 μL sample was transferred to 384-well plate and 7 μL of detection mixture added.
For the vast majority of examples at least two diastereomers exist and these have been separated, unless otherwise stated, using the techniques of reversed phase HPLC, chiral HPLC or chiral SFC. Isomer assignment (Isomer 1, Isomer 2, etc.) is based on the retention time of the compound using the separation technique that was performed in the final purification step. By implication, this could be reversed phase HPLC, chiral HPLC or chiral SFC retention time, and this will vary from compound to compound.
(Alpha assays give light when donor and acceptor beads are brought close together.)

For assay [2], the target named is T2, human muscarinic M4 receptor (Homo sapiens, UniProt P08173).
T2 sequence (P08173 1-479): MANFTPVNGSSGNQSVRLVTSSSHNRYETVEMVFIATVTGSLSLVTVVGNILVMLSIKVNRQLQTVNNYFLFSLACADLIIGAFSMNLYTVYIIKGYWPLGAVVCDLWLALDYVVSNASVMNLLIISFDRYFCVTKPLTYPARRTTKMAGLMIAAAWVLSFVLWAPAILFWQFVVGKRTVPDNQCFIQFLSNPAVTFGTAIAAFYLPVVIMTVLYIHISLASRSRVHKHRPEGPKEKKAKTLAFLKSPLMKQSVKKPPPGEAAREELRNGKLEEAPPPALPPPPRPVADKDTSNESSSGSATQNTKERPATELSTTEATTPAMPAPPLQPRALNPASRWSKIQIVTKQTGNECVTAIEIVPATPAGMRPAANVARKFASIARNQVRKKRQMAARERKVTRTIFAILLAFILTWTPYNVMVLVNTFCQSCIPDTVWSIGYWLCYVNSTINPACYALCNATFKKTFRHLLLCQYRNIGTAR
The assay can be described thus: Alphascreen Surefire phospho-ERK1/2 functional assay, M4. Conditions: for % Emax cf. ACh, M4: CHO cells stably expressing human M4; for EC50: pEC50 M4, CHO cells stably expressing human M4, phospho-ERK1/2. The method, then:
as §1, with “ERK1/2” for “Functional assays were performed using the Alphascreen Surefire phospho-ERK1/2 assay (Crouch & Osmond, Comb. Chem. High Throughput Screen, 2008). ERK1/2”
(§2) Isomer assignment (Isomer 1, Isomer 2, etc.) is based on the retention time of the compound using the separation technique that was performed in the final purification step. By implication, this could be reversed phase HPLC, chiral HPLC or chiral SFC retention time, and this will vary from compound to compound.

The target in assay [3] is T3, human muscarinic M3 receptor (Homo sapiens, UniProt P20309).
T3 construct: expressed in transfected cells
T3 sequence (P20309 whole entry): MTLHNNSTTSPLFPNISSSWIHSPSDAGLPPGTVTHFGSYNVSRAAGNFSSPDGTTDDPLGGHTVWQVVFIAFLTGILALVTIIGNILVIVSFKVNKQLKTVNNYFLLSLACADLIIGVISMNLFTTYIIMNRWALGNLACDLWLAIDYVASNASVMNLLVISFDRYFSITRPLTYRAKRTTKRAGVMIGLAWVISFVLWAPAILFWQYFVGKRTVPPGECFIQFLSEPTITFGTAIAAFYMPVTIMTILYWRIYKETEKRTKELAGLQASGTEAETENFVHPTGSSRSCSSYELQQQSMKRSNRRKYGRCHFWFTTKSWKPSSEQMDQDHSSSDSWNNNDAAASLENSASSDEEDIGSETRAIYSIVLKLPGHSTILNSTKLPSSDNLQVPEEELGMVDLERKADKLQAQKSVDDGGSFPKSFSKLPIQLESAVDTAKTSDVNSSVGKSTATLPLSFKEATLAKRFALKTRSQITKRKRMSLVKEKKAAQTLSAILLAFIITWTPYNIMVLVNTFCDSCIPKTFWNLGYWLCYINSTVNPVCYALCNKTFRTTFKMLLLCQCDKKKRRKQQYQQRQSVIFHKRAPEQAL
Description: Alphascreen Surefire phospho-ERK1/2 functional assay, M3. The conditions noted are these: for Emax: CHO, read-out: % Emax cf. ACh, M3, CHO cells stably expressing human M3; for Emax / % Emax cf. ACh, M3: Emax relative to ACh; for EC50: pEC50 M3, CHO cells stably expressing human M3, phospho-ERK1/2; for % Emax cf. ACh, M3: CHO cells stably expressing human M3. The method, then:
as §1, with “ERK1/2” for “Functional assays were performed using the Alphascreen Surefire phospho-ERK1/2 assay (Crouch & Osmond, Comb. Chem. High Throughput Screen, 2008). ERK1/2”
as §2

Assay [4] deals with T4, human muscarinic M2 receptor (Homo sapiens, UniProt P08172).
T4 sequence (P08172 1-466): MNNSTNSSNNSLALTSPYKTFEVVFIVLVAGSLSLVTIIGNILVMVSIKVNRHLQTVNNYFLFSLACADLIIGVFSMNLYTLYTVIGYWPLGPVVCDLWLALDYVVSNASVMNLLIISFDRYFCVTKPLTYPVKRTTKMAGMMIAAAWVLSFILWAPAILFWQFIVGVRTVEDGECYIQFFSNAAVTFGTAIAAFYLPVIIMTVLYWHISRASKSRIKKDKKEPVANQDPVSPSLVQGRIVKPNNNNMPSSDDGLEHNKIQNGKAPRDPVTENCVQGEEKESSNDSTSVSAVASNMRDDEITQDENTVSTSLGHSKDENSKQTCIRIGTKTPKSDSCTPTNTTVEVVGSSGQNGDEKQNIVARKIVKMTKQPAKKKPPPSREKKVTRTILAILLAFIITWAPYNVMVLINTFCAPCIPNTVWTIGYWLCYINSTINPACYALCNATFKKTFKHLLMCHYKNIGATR
The assay can be described thus: Alphascreen Surefire phospho-ERK1/2 functional assay, M2. Conditions: for % Emax cf. ACh, M2: CHO cells stably expressing human M2; for EC50: pEC50 M2, CHO cells stably expressing human M2, phospho-ERK1/2. The method, then: as §1, with “ERK1/2” for “Functional assays were performed using the Alphascreen Surefire phospho-ERK1/2 assay (Crouch & Osmond, Comb. Chem. High Throughput Screen, 2008). ERK1/2”
as §2

Setting [5] is: Emax relative to ACh, listed as 1-2 Isomer 2.
The mark [6] stands for this setting: Emax relative to ACh, listed as 2-3 Isomer 1.

As usually defined, the EC50 is the concentration that produces a half-maximal response. Higher therefore signals a need for much substance. The term Emax denotes the greatest response seen or fitted, relative to the assay's reference. With `CCOC(=O)N1C2COCC1CC(N1CCC(n3cc(Cl)cn3)CC1)C2` (single isomer, unassigned) [Example 1-2 Isomer 2, Ethyl 7-[4-(4-chloro-1H-pyrazol-1-yl)piperidin-1-yl]-3-oxa-9-azabicyclo[3.3.1]nonane-9-carboxylate], the “% Emax cf. ACh, M1” value in assay [1] (listed as 1-2 Isomer 2) was determined as 67%. Further, the EC50 in assay [1] was 77.6 nM; in assay [2] it was 13.2 nM; in assay [3] it was more than 20000 nM; in assay [4] it was more than 20000 nM. Moreover, the “% Emax cf. ACh, M4” value in assay [2] (setting [5]) was determined as 51%. Further, the Emax in assay [3] came to 2%. In addition, in assay [4] (setting [5]), the “% Emax cf. ACh, M2” value is listed as 10%.
Take `CCOC(=O)N1C2COCC1CC(N1CCC(n3cc(C)cn3)CC1)C2` (single isomer, unassigned) [Example 1-3 Isomer 1, Ethyl 7-[4-(4-methyl-1H-pyrazol-1-yl)piperidin-1-yl]-3-oxa-9-azabicyclo[3.3.1]nonane-9-carboxylate]: in assay [1] (listed as 1-3 Isomer 1), the “% Emax cf. ACh, M1” value was determined as 124%. Besides, the EC50 in assay [1] was 55 nM; in assay [2], 7.24 nM; in assay [3], 2510 nM; in assay [4] it was 282 nM. In addition, in assay [2] (CHO, read-out: % Emax cf. ACh, M4, CHO cells stably expressing human M4, Emax relative to ACh), the Emax is 99%. Further, in assay [3] (listed as 1-3 Isomer 1), the “% Emax cf. ACh, M3” value stood at 40%. Further, in assay [4] (Emax relative to ACh, listed as 1-3 Isomer 1), the “% Emax cf. ACh, M2” value turned out to be 112%.
As to `CCOC(=O)N1C2COCC1CC(N1CCC(n3cc(C)cn3)CC1)C2` (single isomer, unassigned) [Example 1-3 Isomer 2, Ethyl 7-[4-(4-methyl-1H-pyrazol-1-yl)piperidin-1-yl]-3-oxa-9-azabicyclo[3.3.1]nonane-9-carboxylate], the “% Emax cf. ACh, M1” value in assay [1] (listed as 1-3 Isomer 2) came out at 45%. In addition, the EC50 was 316 nM in assay [1], 112 nM in assay [2], more than 20000 nM in assay [3] and more than 20000 nM in assay [4]. The “% Emax cf. ACh, M4” value in assay [2] (Emax relative to ACh) was 81%. Further, the “% Emax cf. ACh, M3” value in assay [3] (listed as 1-3 Isomer 2) is given as 5%. The “% Emax cf. ACh, M2” value in assay [4] (Emax relative to ACh, listed as 1-3 Isomer 2) came out at 11%.
With `CCOC(=O)N1C2COCC1CC(N1CCC(c3cccnc3OC)CC1)C2` (single isomer, unassigned) [Example 2-2 Isomer 1, Ethyl 7-[4-(2-methoxypyridin-3-yl)piperidin-1-yl]-3-oxa-9-azabicyclo[3.3.1]nonane-9-carboxylate], in assay [1] (listed as 2-2 Isomer 1), the “% Emax cf. ACh, M1” value came to 63%. Moreover, the EC50 in assay [1] was more than 20000 nM; in assay [2] it was 36.3 nM; in assay [3], more than 20000 nM; in assay [4], more than 20000 nM. Also, the “% Emax cf. ACh, M4” value in assay [2] (Emax relative to ACh, listed as 2-2 Isomer 1) is given as 61%. Besides, the Emax was determined as 4% in assay [3] and 3% in assay [4] (CHO, read-out: % Emax cf. ACh, M2, CHO cells stably expressing human M2, Emax relative to ACh).
As for `CCOC(=O)N1C2COCC1CC(N1CCC(c3cccnc3OC)CC1)C2` (single isomer, unassigned) [Example 2-2 Isomer 2, Ethyl 7-[4-(2-methoxypyridin-3-yl)piperidin-1-yl]-3-oxa-9-azabicyclo[3.3.1]nonane-9-carboxylate], the “% Emax cf. ACh, M1” value in assay [1] (listed as 2-2 Isomer 2) is on record as 10%. Further, in assay [2] (Emax relative to ACh, listed as 2-2 Isomer 2), the “% Emax cf. ACh, M4” value turned out to be 37%. In assay [2], this compound gave an EC50 of 112 nM. The “% Emax cf. ACh, M3” value in assay [3] is 5%. For the same compound, the “% Emax cf. ACh, M2” value in assay [4] (Emax relative to ACh) came out at 3%.
For `CCOC(=O)N1C2COCC1CC(N1CCC(c3ccc[nH]c3=O)CC1)C2` (single isomer, unassigned) [Example 2-3 Isomer 1, Ethyl 7-[4-(2-oxo-1,2-dihydropyridin-3-yl)piperidin-1-yl]-3-oxa-9-azabicyclo[3.3.1]nonane-9-carboxylate], the “% Emax cf. ACh, M1” value in assay [1] (listed as 2-3 Isomer 1) is on record as 77%. Further, the EC50 in assay [1] is 195 nM; in assay [2], 6.46 nM; in assay [3] it was more than 20000 nM; in assay [4], 288 nM. Further, the “% Emax cf. ACh, M4” value in assay [2] (setting [6]) was 99%. The Emax in assay [3] turned out to be 9%. Also, the “% Emax cf. ACh, M2” value in assay [4] (setting [6]) was determined as 45%.
